pIC50: −log10 of the molar value.
These molecules were tested against T1, GST-RIPK1 (recombinant GST-RIPK1 kinase domain (residues 1-327)) (Homo sapiens, UniProt Q13546) (assay: RIPK1-ADP-Glo enzymatic assay). Conditions: 25 nM GST-RIPK1, 300 μM ATP, 3 μM dephosphorylated-MBP; 30 minutes pre-incubation, 150 minutes reaction; ten-point titration.
T1 construct: recombinant GST-RIPK1 kinase domain (residues 1-327) enzyme; made in house; host or cells: baculovirus-transfected Sf21 insect cells
T1 sequence (Q13546 1-327): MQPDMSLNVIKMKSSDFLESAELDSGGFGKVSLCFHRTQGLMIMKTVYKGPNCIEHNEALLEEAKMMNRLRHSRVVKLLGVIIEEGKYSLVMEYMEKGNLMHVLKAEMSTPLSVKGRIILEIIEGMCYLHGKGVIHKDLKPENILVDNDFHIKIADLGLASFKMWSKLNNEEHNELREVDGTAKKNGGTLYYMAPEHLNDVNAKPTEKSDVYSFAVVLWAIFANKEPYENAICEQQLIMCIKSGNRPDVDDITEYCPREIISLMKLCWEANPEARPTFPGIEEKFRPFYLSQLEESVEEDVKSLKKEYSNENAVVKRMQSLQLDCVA
Type: biochemical
Summary of the method: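 Ten-point 1:3 titrations from 100000 nM, 1% DMSO, were preincubated 30 min with 25 nM GST-RIPK1 (1-327) before starting with 300 μM ATP plus 3 μM dephosphorylated MBP; 150 min reaction. ADP-Glo luminescence measured ATP-to-ADP conversion; EC50 by four-parameter sigmoidal regression.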

`N#CC12CCC(C(=O)N3C[C@@H]4C[C@H]3c3cncc(Cl)c3O4)(C1)C2` [Compound 2-26, 4-((2S,5S)-9-chloro-2,3,4,5-tetrahydro-2,5-methanopyrido[3,4-f][1,4]oxazepine-4-carbonyl)bicyclo[2.1.1] hexane-1-carbonitrile] and `O=C(N1C[C@@H]2C[C@H]1c1cncc(Cl)c1O2)C12CCC(C1)C2` [Compound 2-29, bicyclo[2.1.1]hexan-1-yl((2S,5S)-9-chloro-2,3-dihydro-2,5-methanopyrido[3,4-f][1,4]oxazepin-4(5H)-yl)methanone] are within 0.2 log units of each other in pIC50: 7.06 for the first, 6.91 for the second.

`Cc1ncc2c(c1F)O[C@H]1C[C@@H]2N(C(=O)C23CCC(C(F)(F)F)(CC2)C3)C1` [Compound 2-27, ((2S,5S)-9-Fluoro-8-methyl-2,3-dihydro-2,5-methanopyrido[3,4-f][1,4]oxazepin-4(5H)-yl)(4-(trifluoromethyl)bicyclo[2.2.1]heptan-1-yl)methanone] and `Cc1ncc2c(c1F)O[C@H]1C[C@@H]2N(C(=O)C23CCC(F)(CC2)C3)C1` [Compound 2-28, ((2S,5S)-9-fluoro-8-methyl-2,3-dihydro-2,5-methanopyrido[3,4-f][1,4]oxazepin-4(5H)-yl)(4-fluorobicyclo[2.2.1]heptan-1-yl)methanone] are within 0.2 log units of each other in pIC50: 7.33 for the first, 7.23 for the second.

Going from `O=C(N1C[C@@H]2C[C@H]1c1cncc(F)c1O2)C12CCC(C1)C2` [Compound 2-30, bicyclo[2.1.1]hexan-1-yl((2S,5S)-9-fluoro-2,3-dihydro-2,5-methanopyrido[3,4-f][1,4]oxazepin-4(5H)-yl)methanone] to `O=C(N1C[C@@H]2C[C@H]1c1cncc(Cl)c1O2)C12CCC(CC1)C2` [Compound 2-31, Bicyclo[2.2.1]heptan-1-yl((2S,5S)-9-chloro-2,3-dihydro-2,5-methanopyrido[3,4-f][1,4]oxazepin-4(5H)-yl)methanone], the pIC50 rises from 6.81 to 7.70 (0.89 log units).

Going from `C#Cc1cncc2c1O[C@H]1C[C@@H]2N(C(=O)C(C)(C)C(F)F)C1` [Compound 2-32, 1-((2S,5S)-9-Ethynyl-2,3-dihydro-2,5-methanopyrido[3,4-f][1,4]oxazepin-4(5H)-yl)-3,3-difluoro-2,2-dimethylpropan-1-one] to `CC(C)(C(=O)N1C[C@@H]2C[C@H]1c1cncc(C#Cc3cncnc3)c1O2)C(F)F` [Compound 2-45, 3,3-difluoro-2,2-dimethyl-1-((2S,5S)-9-(pyrimidin-5-ylethynyl)-2,3-dihydro-2,5-methanopyrido[3,4-f][1,4]oxazepin-4(5H)-yl)propan-1-one], the pIC50 rises from 6.78 to 7.49 (0.71 log units). The second is the more potent here.

Compared with `C#Cc1cncc2c1O[C@H]1C[C@@H]2N(C(=O)C23CCC(C(F)(F)F)(CC2)C3)C1` [Compound 2-33, ((2S,5S)-9-ethynyl-2,3-dihydro-2,5-methanopyrido[3,4-f][1,4]oxazepin-4(5H)-yl)(4-(trifluoromethyl)bicyclo [2.2.1]heptan-1-yl)methanone], `CC(C)(C)C(=O)N1C[C@@H]2C[C@H]1c1cncc(C#Cc3cc(C(F)(F)F)ccn3)c1O2` [Compound 2-35, 2,2-dimethyl-1-((2S,5S)-9-((4-(trifluoromethyl)pyridin-2-yl)ethynyl)-2,3-dihydro-2,5-methanopyrido[3,4-f][1,4]oxazepin-4(5H)-yl)propan-1-one] is 0.67 log units lower in pIC50: 7.42 for the first, 6.75 for the second. The first is the more potent here.

First: CC(C)(C(=O)N1C[C@@H]2C[C@H]1c1cncc(C#Cc3ccc4nccnc4c3)c1O2)C(F)F [Compound 2-34, 3,3-Difluoro-2,2-dimethyl-1-((2S,5S)-9-(quinoxalin-6-ylethynyl)-2,3-dihydro-2,5-methanopyrido[3,4-f][1,4]oxazepin-4(5H)-yl)propan-1-one]
Second: CC(C)(C(=O)N1C[C@@H]2C[C@H]1c1cncc(C#Cc3ccnc(N)c3)c1O2)C(F)F [Compound 2-39, 1-((2S,5S)-9-((2-aminopyridin-4-yl)ethynyl)-2,3-dihydro-2,5-methanopyrido[3,4-f][1,4]oxazepin-4(5H)-yl)-3,3-difluoro-2,2-dimethylpropan-1-one]
The pIC50 of the first is 0.20 log units higher: 7.82 for the first, 7.62 for the second.

Compared with `CC(C)(C)C(=O)N1C[C@@H]2C[C@H]1c1cncc(C#CC(O)(c3ccccc3)C(F)(F)F)c1O2` (stereo partly drawn) [Compound 2-36, 2,2-dimethyl-1-((2S,5S)-9-(4,4,4-trifluoro-3-hydroxy-3-phenylbut-1-yn-1-yl)-2,3-dihydro-2,5-methanopyrido[3,4-f][1,4]oxazepin-4(5H)-yl)propan-1-one], `CC(C)(C)C(=O)N1C[C@@H]2C[C@H]1c1cncc(C#Cc3ccc(OC(F)(F)F)cc3)c1O2` [Compound 2-37, 2,2-dimethyl-1-((2S,5S)-9-((4-(trifluoromethoxy)phenyl)ethynyl)-2,3-dihydro-2,5-methanopyrido[3,4-f][1,4]oxazepin-4(5H)-yl)propan-1-one] is 1.05 log units higher in pIC50: 6.28 for the first, 7.33 for the second. The second is the more potent here.

Compared with `COc1ccc2cc(C#Cc3cncc4c3O[C@H]3C[C@@H]4N(C(=O)C(C)(C)C)C3)ccc2c1` [Compound 2-38, 1-((2S,5S)-9-((6-methoxynaphthalen-2-yl)ethynyl)-2,3-dihydro-2,5-methanopyrido[3,4-f][1,4]oxazepin-4(5H)-yl)-2,2-dimethylpropan-1-one], `CC(C)(C(=O)N1C[C@@H]2C[C@H]1c1cncc(C#Cc3ccc(F)cc3)c1O2)C(F)F` [Compound 2-41, 3,3-difluoro-1-((2S,5S)-9-((4-fluorophenyl)ethynyl)-2,3-dihydro-2,5-methanopyrido[3,4-f][1,4]oxazepin-4(5H)-yl)-2,2-dimethylpropan-1-one] is 0.35 log units lower in pIC50: 7.60 for the first, 7.25 for the second.

`CC(C)(C(=O)N1C[C@@H]2C[C@H]1c1cncc(C#CCn3nnc4ccccc43)c1O2)C(F)F` [Compound 2-40, 1-((2S,5S)-9-(3-(1H-benzo[d][1,2,3]triazol-1-yl)prop-1-yn-1-yl)-2,3-dihydro-2,5-methanopyrido[3,4-f][1,4]oxazepin-4(5H)-yl)-3,3-difluoro-2,2-dimethylpropan-1-one] and `CC(C)(C(=O)N1C[C@@H]2C[C@H]1c1cncc(C#CCc3ccccc3)c1O2)C(F)F` [Compound 2-46, 3,3-difluoro-2,2-dimethyl-1-((2S,5S)-9-(3-phenylprop-1-yn-1-yl)-2,3-dihydro-2,5-methanopyrido[3,4-f][1,4]oxazepin-4(5H)-yl)propan-1-one] are within 0.2 log units of each other in pIC50: 6.85 for the first, 7.01 for the second.

First: CC(C)(C(=O)N1C[C@@H]2C[C@H]1c1cncc(C#Cc3cccc(F)c3)c1O2)C(F)F [Compound 2-42, 3,3-difluoro-1-((2S,5S)-9-((3-fluorophenyl)ethynyl)-2,3-dihydro-2,5-methanopyrido[3,4-f][1,4]oxazepin-4(5H)-yl)-2,2-dimethylpropan-1-one]
Second: CC(C)(C(=O)N1C[C@@H]2C[C@H]1c1cncc(C#Cc3ccccc3)c1O2)C(F)F [Compound 2-47, 3,3-Difluoro-2,2-dimethyl-1-((2S,5S)-9-(phenylethynyl)-2,3-dihydro-2,5-methanopyrido[3,4-f][1,4]oxazepin-4(5H)-yl)propan-1-one]
The pIC50 of the first is 0.20 log units higher: 7.38 for the first, 7.18 for the second.

`CC(C)(C(=O)N1C[C@@H]2C[C@H]1c1cncc(C#Cc3ccc(F)cc3F)c1O2)C(F)F` [Compound 2-43, 1-((2S,5S)-9-((2,4-difluorophenyl)ethynyl)-2,3-dihydro-2,5-methanopyrido[3,4-f][1,4]oxazepin-4(5H)-yl)-3,3-difluoro-2,2-dimethylpropan-1-one] and `CC(C)(C(=O)N1C[C@@H]2C[C@H]1c1cncc(C#Cc3ccccc3F)c1O2)C(F)F` [Compound 2-44, 3,3-difluoro-1-((2S,5S)-9-((2-fluorophenyl)ethynyl)-2,3-dihydro-2,5-methanopyrido[3,4-f][1,4]oxazepin-4(5H)-yl)-2,2-dimethylpropan-1-one] are within 0.2 log units of each other in pIC50: 7.32 for the first, 7.47 for the second.
